Reference: patent publication US9474749B2 (priority 2004, dated 2016)
Several values for one entry are separate records, joined by “and”; a condition that tells them apart may be missing. Equal values may be shown once. Read-outs that look alike come from different tables or passages of the source.

Tests used:
BACE-2 = BACE-2 mRNA expression in HTB-11 cells (RT-PCR); details: morphine, 24 hours
Method: (§9) SH-SY5Y human neuroblastoma cells (ATCC, USA) were cultured in Dulbecco's modified Eagle's medium/Ham's nutrient mixture (DMEM-F12) (Invitrogen, USA), and HTB-11 human neuroblastoma cells (ATCC, USA) were cultured in Minimum Essential Medium Alpha Medium (MEM-α) (Invitrogen, USA). […] All treatments were performed under a sterile hood.
(§10) After the treatment time-period, cells were harvested, and total RNA was extracted using RNeasy RNA Isolation kit (Qiagen) following the manufacturer's procedures. Total RNA yield was determined using a Spectrophotometer RNA/DNA calculator (Pharmacia Biotech). Total RNA concentration was then standardized for semi-quantitative RT-PCR, which was carried out in a Geneamp Thermocycler PCR System 9700 (P.E. Applied Biosystems). […] PCR products and a 100 bp DNA marker were then loaded in a 2% agarose gel stained with ethidium bromide. Gel electrophoresis was performed using a power-supply (E-C Apparatus Corp.) set at 110V with constant amperage for 1.5 hours. Gels were then photographed using a Gel Documentation System (UVP), and bands analyzed using Gel-Pro Analyzer (MediaCybernetics) on a P4 Windows machine.

[1] = test system: 20S Proteasome LMP7 Subunit (β5i); assay: LMP7 immunoproteasome subunit mRNA expression (RT-PCR); format: cell-based, human
Method: (§1) Isolation of total RNA was performed via RNA MiniPrep Kit (QIAGEN). Concentration of RNA was determined via GeneQuant II Spectrophotometer (Pharmacia Biotech) by multiplying A260 value with dilution factor and nucleic acid constant (0.04). Agarose gel electrophoresis (1%) was used to check for RNA quality.
(§2) RT and PCR reactions were performed in GeneAmp PCR System 9700 (Applied Biosystems) using reverse transcriptase and Taq DNA Polymerase. Forward and reverse gene specific-primers for various subunits of the 20S proteasome and immunoproteasome were either obtained from the literature or designed through Primer Express Software 2.0 (Applied Biosystems) (Table 4). NMDA receptor subunit primers were also designed (Table 4). NMDA receptor expression was used as a marker of neurodegenerative disease.
(§3) All primers were optimized for annealing temperatures and cycles (Table 5). Gel electrophoresis (2% agarose, 0.01% ethidium bromide) was performed and analyzed using a UV transilluminator (UVP) and GelPro Analyzer Software (Applied Biosystems). Relative band intensity was normalized with β-Actin reference gene.

BACE-1 = BACE-1 mRNA expression in HTB-11 cells (RT-PCR); details: 24 hours
Method: as §9, §10

NMDA NR2B Subunit = assay: NMDA NR2B subunit mRNA expression (RT-PCR); format: cell-based, human
Method: as §1, §2, §3

Ubiquitin = assay: Free ubiquitin (Western blot); format: cell-based, human
Method: (§4) To determine protein concentrations, protein was harvested using the following buffer: 20 mM Hepes (Sigma), 100 mM NaCl (Fisher), 10 mM NaF (Sigma), 1% Triton X-100 (Sigma), 1 mM sodium orthovanadate (Sigma), 10 mM EDTA (Sigma), pH 7.4, 0.1% protease inhibitor cocktail (Sigma), and ddH2O. Homogenized samples were spun in an ultracentrifuge at 10,000G for 20 minutes at 4° C. Concentration was determined via the Bradford assay (Bio-Rad) using bovine serum albumin (BSA, Sigma) for standard curve. To eliminate any potential pipetting error, samples and standards were read in triplicate.
(§5) Western blotting was performed as follows. SDS-polyacrylamide gels (12% for separation and 5% for stacking) were made using the Mini Trans-Blot Cell (Bio-Rad). Based on the concentrations from the protein concentration determination assay, the proteins were mixed with 2× Protein Loading Buffer (0.2M DTT) for a final volume of 24 μL. Tris-Glycine Electrophoresis Buffer (1×) was used in SDS-PAGE, and proteins were separated at constant amperage (35 mA).
(§6) Subsequent protein transfer to a nitrocellulose membrane involved use of the Mini Trans-Blot Cell apparatus run at constant voltage (100V) for 40 minutes. […]
(§7) Substrate (Pierce) was administered as a means of stimulating chemiluminescence. Blots were developed and subsequently analyzed for relative band intensity using Gel-Pro software (Applied Biosystems).

immunocytes = assay: LPS activation of hemolymph cells from morphine pre-treated animals; details: single pre-treatment, morphine 10^−6 M, LPS 1 μg/mL
[2] = test system: Immunoproteasome LMP7 (β5i) Subunit; assay: LMP7 polypeptide expression (Western blot); format: cell-based, human; details: 36 and 48 hours
Method: as §4, §5, §6, §7

Mytilus animals = assay: TNF-α-induced death of animals; details: morphine 10^−7 M daily for four days pre-treatment
Method: 100 healthy Mytilus animals were treated with 10 U/mL of TNF-α by injection.

human saphenous veins = assay: NO release from human saphenous veins; details: 2×10^−7 M morphine
pedal ganglia [3] = assay: NO release from excised pedal ganglia (NO-selective microprobe); format: cell-based, Mytilus edulis
Method: For the nitric oxide assay, ten pedal ganglia (per determination) dissected from M. edulis were bathed in 1 mL sterile phosphate buffered saline (PBS). […] For the opiate receptor antagonist experiments, ganglia were pretreated with naloxone for 10 minutes prior to reticuline addition. NO release was monitored with an NO-selective microprobe manufactured by World Precision Instruments (Sarasota, Fla.). The sensor was positioned approximately 100 μm above the respective tissue surface. […] The NO detection system was calibrated daily. The probe was allowed to equilibrate for 10 minutes in the incubation medium free of tissue before being transferred to vials containing the ganglia for another 5 minutes. Manipulation and handling of the ganglia was only performed with glass instruments. Data was acquired using the Apollo-4000 free radical analyzer (World Precision Instruments, Sarasota, Fla.). The experimental values were then transferred to Sigma-Plot and -Stat (Jandel, Calif.) for graphic representation and evaluation.

pedal ganglia [4] = assay: NO release after daily morphine injections (tolerance); format: in vivo, Mytilus
Method: 45 Mytilus animals were divided into three groups. […] Two hours post-injection, NO release was measured.

[5] = test system: SK-N-SH neuroblastoma cell line; assay: NO release from SK-N-SH neuroblastoma cells; details: morphine sulfate 5 μM; baseline 2 nM NO
Method: The human SK-N-SH neuroblastoma cell line (ATCC #HTB-11) was used as a cellular model. Cells were propagated in Minimum Essential Medium alpha (MEMα) with 10% fetal bovine serum (FBS), 2% penicillin/streptomycin, 1.5 g/L NaHCO3, and 1.0 mM pyruvic acid. A 5% CO2 incubator (NAPCO) at 37° C. was used for maintenance of temperature and pH. […] When needed, cells were plated in 6- or 12-well plates using a hemocytometer (2×10^5 cells/well in 6-well plates or 1×10^5 cells/well in 12-well plates). Experimental manipulations were performed under sterile conditions under a lamina airflow hood after cells had adhered to the bottom of the plates.

[6] = test system: 20S Proteasome X Subunit (β5); assay: 20S proteasome X subunit mRNA expression (RT-PCR); format: cell-based, human; details: morphine 5 μM, 24 hours; control 0.716±0.015
Method: as §1, §2, §3

[7] = test system: human immune and vascular tissues; assay: NO release from human immune and vascular tissues; format: cell-based; details: morphine 10^−6 M
NMDA NR1 Subunit = assay: NMDA NR1 subunit mRNA expression (RT-PCR); format: cell-based, human
Method: as §1, §2, §3

20S proteasome = assay: Activity of the whole 20S proteasome (fluorometric); format: cell-based, human
Method: (§8) Proteasome function assays were performed in an effort to examine the modulation in levels of protein degradation. Fluorometric assays were performed for both the chymotrypsin activity of the 26S proteasome as well as activity of the whole 20S proteasome using procedures adapted from Kotamraju et al. (Proc. Natl. Acad. Sci. USA, 100:10653-8 (2003)). Excitation at 365 nm and emission at 460 nM of the fluorogenic compound, […] (AMC), were measured using a Spectrofluoroscence Detector (McPherson).

[8] = test system: SK-N-SH neuroblastoma cell line; assay: Cellular morphology (Form Factor) of neuroblastoma cells; format: cell-based, human; details: concomitant morphine and IFNγ
Method: Cell viability was determined via Trypan blue exclusion. An inverted light microscope (Nikon) with a phase-contrast filter was used to observe the cells. Pictures of the cells were taken via a digital camera (Optronix) attached to the microscope ocular. Images were uploaded onto ImagePro Plus Software (Applied Biosystems), where cell viability was calculated based on both the number of cells covering the field and the cells that present as dead from the stain. In addition, ImagePro Plus was used for determining cellular morphology. The area and perimeter were found and used in the formula (4π*Area)/(Perimeter)^2, resulting in a value between 0 (a straight line) and 1 (a perfect circle).

26S proteasome = assay: Chymotrypsin activity of the 26S proteasome (fluorometric); format: cell-based, human
Method: as §8

[9] = test system: 20S Proteasome X (β5) Subunit; assay: 20S proteasome X subunit protein (Western blot); format: cell-based, human
Method: as §4, §5, §6, §7

Method for SH-SY5Y cells: At various time points (initial and 1, 2, and 7 days), the cells were washed in phosphate buffered saline (PBS), placed in 250 μL PBS, and assessed for NO release. NO release was measured using an Apollo-4000 free radical analyzer with a 30 μm probe. The probe was calibrated daily with SNAP. Each assay was performed in quadruplicate. The mean±the standard error were graphed for each time point.

CN1CC[C@]23c4c5ccc(O)c4O[C@H]2[C@@H](O)C=C[C@H]3[C@H]1C5 [Morphine, morphine]
BACE-2 expression (BACE-2): up regulates the expression of BACE-2
LMP7 mRNA expression ([1]; 5 μM morphine with rotenone, 24 hours): 0.792±0.001 AU
effect on IFNγ-induced LMP7 mRNA ([1]; p<0.034): blocked the LMP7 increase induced by IFNγ
down regulation of BACE-1 expression (BACE-1; 1 μM morphine): 44%
down regulation of BACE-1 expression (BACE-1; 5 μM morphine): 18%
NR2B expression (NMDA NR2B Subunit): 1.09±0.06 AU and 1.17±0.04 AU
free ubiquitin (Ubiquitin; 1 μM morphine, control 44): 64 AU
free ubiquitin (Ubiquitin; 5 μM morphine): 125 AU
activation of LPS-treated cells (immunocytes): 19.3±3.8%
effect on IFNγ-stimulated LMP7 polypeptide expression [2]: blocked this action
effect on TNF-α-induced death (Mytilus animals): reduced the number of animals that died
NO released (human saphenous veins): 7 ± 2 nM
NO Peak Level (pedal ganglia [3]; ligand 10^−7 M): 24.3 ± 3.1 nM
NO Peak Time (pedal ganglia [3]; ligand 10^−7 M): 0.8 ± 0.2 min
duration of ganglionic NO release (pedal ganglia [3]; reticuline 10^−7 M, morphine 10^−6 M): 5 min
NO release on day one versus days two, three, and four (pedal ganglia [4]; 0.01 μM morphine daily): level similar
NO release after four days versus day one (pedal ganglia [4]; 1 μM morphine daily): substantially lower
NO release on 10 μM morphine challenge versus one day of 1 μM (pedal ganglia [4]; 1 μM morphine for four days): about half
peak NO release [5]: 22.3 nM
proteasomal X subunit mRNA expression [6]: 0.868±0.007 AU
NO release [7]: 26 to 29 nM
NR1 expression (NMDA NR1 Subunit): 1.40±0.056 AU
20S proteasome activity (20S proteasome): decrease in 20S proteasomal function
Form Factor (FF) [8]: 0.58±0.01
activity of the chymotrypsin functional 26S active site (26S proteasome): 277 ± 8.0 pM
NO release (SH-SY5Y cells; 10^−6 M morphine daily for six days, 10^−6 M on the seventh day): 3.4 nM
NO release (SH-SY5Y cells; morphine 10^−6 M): 3 to 4 nM
X subunit protein band intensity [9]: 162 AU and 188 AU and 168 AU and 154 AU
